Legend:
atherosclerotic plaques = assay: Plaque disruption by MRI before and after triggering in a rabbit model of atherosclerosis (cholesterol diet plus balloon injury); assay type: in vivo, New Zealand White (NZW) rabbits; conditions: for plaque stabilization: applied to both sides of the mandible on the gingiva every-other-day, high cholesterol diet and balloon injury to descending thoracic and abdominal aortic segments
Experimental: New Zealand White (NZW) rabbits (n=10) received cholesterol-enriched diet (1%) for 8 weeks to develop atherosclerosis. In addition, balloon injury was performed at 2 weeks to advance the atherosclerosis at the descending thoracic and abdominal aortic segments. The […] of cholesterol feeding was followed by a 4 week period of normal chow diet at the end of the experiment. Half of the rabbits were randomized in the experimental (9,12 benzo LXA4-treated) group and half in the control group.
Topical LXA4 (1 mg/ml) was applied on both side of the mandible on the gingiva every-other-day for the duration of the experiment. In vivo MRI images were taken at 12 weeks at before and after triggering. After euthanasia, the aortas were dissected for ex-vivo MRI and histology.

[1] = tested on: polymorphonuclear leukocyte (PMN) infiltration; conditions: in vivo, mouse model of acute inflammation; cited from earlier work

Molecule	plaque stabilization (atherosclerotic plaques)	segments that showed disruption (post-trigger image showed a luminal thrombus) of segments analyzed (atherosclerotic plaques; treatment group, topical 1 mg/ml on gingiva, both sides of the mandible, every-other-day, in vivo MRI at 12 weeks, only one site in one rabbit)	levels of pro-inflammatory cytokines [1]	polymorphonuclear leukocyte (PMN) infiltration [1]
9,12 benzo LXA4	sufficient to stabilize atherosclerotic plaques	2/104	significantly reducing	significantly reducing
CC[C@@H](O)/C=C/C=C\C[C@@H](O)/C=C/C=C/C=C\[C@@H](O)CCCC(=O)O [Resolvin E1]	sufficient to stabilize atherosclerotic plaques			

From patent US20230355562A1, “METHODS FOR STABILIZING ATHEROSCLEROTIC PLAQUES USING LIPOXINS, RESOLVINS, AND ANALOGS THEREOF” (The Forsyth Institute, priority 2015, published 2023)
